Source: US20200407717A1, “METHODS OF MODULATING ANTISENSE ACTIVITY” (Ionis Pharmaceuticals, Inc., priority 2018, published 2020)
e = 2'-O-(2-methoxyethyl) (MOE); d = 2'-deoxy (DNA)

What was measured:
Type in all cases: cell-based
[1] = system: A431 cells; experiment: Immunofluorescent microscopy co-localization
Procedure: Immunofluorescent staining was used to visualize clathrin, EGFR, and PS-ASOs in A431 cells. Compound no. 446654 has the sequence and structure Cy3-^mCesTesGes^mCesTesAdsGds^mCdsTds^mCdsTdsGdsGdsAdsTesTesTesGesAe (SEQ ID NO: 10). Cells were incubated with FITC labeled epidermal growth factor (EGF) or unlabeled EGF and compound no. 446654 for 30 minutes, then fixed with 4% paraformaldehyde for 20 minutes at room temperature and permeabilized with 0.05% saponin (Sigma) in PBS for 5 minutes. Cells were treated with blocking buffer (1 mg/mL BSA in PBS) for 30 minutes and then incubated with primary antibodies at room temperature for 2-4 hours or at 4° C. overnight. Primary antibodies used were ab30 (Abcam) for EGFR, ab21679 (Abcam) for clathrin, and antibody 610456 (BD Bioscience) for early endosome antigen 1 (EEA1). After three washes with PBS, cells were fluorescently labeled with secondary antibodies at room temperature for 1-2 hours. Secondary antibodies used were anti-mouse conjugated to AF488 (ab150077, Abcam) or AF647 (ab150079, Abcam), and anti-rabbit conjugated to AF488 (ab150113, Abcam) or AF647 (ab150115, Abcam). Nuclei were labeled with Hoechst 33342. Cells were then visualized with a confocal microscope (Olympus FV-1000), and single slices and Z-stack images were obtained. Co-localization between PS-ASOs and different organelles was analyzed using FV10-ASW 3.0 viewer software.

[2] = system: EGFR; experiment: Microscopy of EGF-induced internalization and recycling of EGFR; details: with EGF, 16 hours
Procedure: Microscopy studies were also carried out to evaluate the EGF-induced internalization and recycling of EGFR in the presence of Cy3-labeled PS-ASO, compound no. 446654. Cells were treated with EGF alone or EGF and compound no. 446654 for 16 hours. The cells were then either immediately stained and imaged, or the EGF and, if applicable, compound no. 446654 were removed for two hours prior to staining and imaging. Staining and imaging were performed as described above. […] Two hours after removal of EGF, cells show EGFR staining primarily in the plasma membrane. […] Two hours after removal of EGF and/or compound no. 446654, the Cy3 signal remained diffuse throughout the cytoplasm, while EGFR staining primarily localized to the plasma membrane.

[3] = system: Malat1 RNA; experiment: Antisense activity by RT-qPCR, Malat1, HEK cells
Procedure: A431 cells were grown at 10,000 cells per well and pre-treated with a variety of growth factors to determine if the addition of exogenous growth factors affects antisense activity or uptake of modified antisense oligonucleotides in a cell. The growth factors used were EGF, insulin growth factor (IGF), transforming growth factor (TGF), […] (VEGF), hepatocyte growth factor (HGF), platelet growth factor (PGF) and fibroblasts growth factor (FGF). To test antisense activity, cells were treated for 4 hours with a growth factor or vehicle alone, and then treated with compound no. 25690 (complementary to Drosha), compound no. 395254 (complementary to Malat1), or vehicle alone. RNA was isolated from the cells and Drosha or Malat1 RNA levels were measured by RT-qPCR. Human primer probe set 13816 (forward sequence […], designated herein as SEQ ID NO: 3; reverse sequence […], designated herein as SEQ ID NO: 4; probe sequence […], designated herein as SEQ ID NO: 5) was used to measure Drosha mRNA levels and primer probe set RTS2736 (forward sequence […], designated herein as SEQ ID NO: 6; reverse sequence […], designated herein as SEQ ID NO: 7; probe sequence TGCCACATCGCCACCCCGT, designated herein as SEQ ID NO: 8) was used to measure Malat1 RNA levels. Drosha and Malat1 RNA levels were normalized to total RNA content, as measured by RIBOGREEN®. Results are presented in the tables below as normalized RNA levels, relative to untreated control cells.
HEK cells were transfected with 2 μg plasmid encoding EGFR using Lipofectamine 3000 (ThermoFisher) at 2 μg/million cells. Cells were grown for 2 weeks in G418 selection media to select clones overexpressing EGFR. Cells were treated with compound no. 395254 for 16 hours prior to RT-qPCR analysis for Malat1, as in Example 8. The results, shown in the table below, indicate that antisense activity was increased in cells with higher expression levels of EGFR.

[4] = FITC-EGF, 30 minutes, EGFR and clathrin antibodies
[5] = FITC-EGF, EGFR and EEA1 antibodies
[6] = unlabeled EGF, 30 minutes, EGFR and clathrin antibodies
[7] = unlabeled EGF, EGFR and EEA1 antibodies

Question: For “Cy3-^mCesTesGes^mCesTesAdsGds^mCdsTds^mCdsTdsGdsGdsAdsTesTesTesGesAe (antisense CTGCTAGCCTCTGGATTTGA; listed as DNA, chemistry not fully specified) [compound 446654, Cy3-labeled PS-ASO]”, which “co-localization with EGF” value [1, 4] is on record?
Answer: The value was “observed within the cytoplasm and at the cell surface”.

Question: What about the co-localization with clathrin [1, 4] of the same substance?
Answer: Its co-localization with clathrin is “observed at the cell surface”.

Question: What about the “co-localization with EEA1” value [1, 5] of the same substance?
Answer: The value was “observed within the cytoplasm”.

Question: What about the “co-localization with EGF” value [1, 5] of the same substance?
Answer: The value was “observed both at the cell surface and within the cytoplasm”.

Question: What about the “co-localization with EGFR” value [1, 6] of the same substance?
Answer: The value was “observed both at the cell surface and within the cytoplasm”.

Question: What about the co-localization with clathrin [1, 6] of the same substance?
Answer: The co-localization with clathrin was “observed at the cell surface”.

Question: What about the “co-localization with EEA1” value [1, 7] of the same substance?
Answer: Its value is “observed in the cytoplasm and within the nucleus”.

Question: And the “co-localization with EGFR” value [1, 7]?
Answer: Its value is “observed at the cell surface, in the cytoplasm, and within the nucleus”.

Question: And the “distribution of the ASO in cells” value [2]?
Answer: Its value is “distributed throughout the cytoplasm”.

Question: Which results are given for “GGCATATGCAGATAATGTTC (sugars from the 5' end e5 d10 e5, all phosphorothioate, methylation of C not given here) [compound 395254]”?
Answer: Malat1 RNA (% Control) ([3]; 1 nM, HEK cells overexpressing EGFR): 100 % control; Malat1 RNA (% Control) ([3]; 1 nM, Wild type HEK cells): 100 % control; Malat1 RNA (% Control) ([3]; 2 nM, HEK cells overexpressing EGFR): 77.8 % control; Malat1 RNA (% Control) ([3]; 2 nM, Wild type HEK cells): 98.3 % control; Malat1 RNA (% Control) ([3]; 3.9 nM, HEK cells overexpressing EGFR): 73.4 % control; Malat1 RNA (% Control) ([3]; 3.9 nM, Wild type HEK cells): 96 % control; Malat1 RNA (% Control) ([3]; 7.8 nM, HEK cells overexpressing EGFR): 73.3 % control; Malat1 RNA (% Control) ([3]; 7.8 nM, Wild type HEK cells): 87.5 % control; Malat1 RNA (% Control) ([3]; 15.6 nM, HEK cells overexpressing EGFR): 68.1 % control; Malat1 RNA (% Control) ([3]; 15.6 nM, Wild type HEK cells): 81.4 % control; Malat1 RNA (% Control) ([3]; 31.3 nM, HEK cells overexpressing EGFR): 62.2 % control; Malat1 RNA (% Control) ([3]; 31.3 nM, Wild type HEK cells): 86.2 % control; Malat1 RNA (% Control) ([3]; 62.5 nM, HEK cells overexpressing EGFR): 62.4 % control; Malat1 RNA (% Control) ([3]; 62.5 nM, Wild type HEK cells): 95.4 % control; Malat1 RNA (% Control) ([3]; 125 nM, HEK cells overexpressing EGFR): 55.9 % control; Malat1 RNA (% Control) ([3]; 125 nM, Wild type HEK cells): 82.7 % control; Malat1 RNA (% Control) ([3]; 250 nM, HEK cells overexpressing EGFR): 52.9 % control; Malat1 RNA (% Control) ([3]; 250 nM, Wild type HEK cells): 72.1 % control; Malat1 RNA (% Control) ([3]; 1000 nM, HEK cells overexpressing EGFR): 36.5 % control; Malat1 RNA (% Control) ([3]; 1000 nM, Wild type HEK cells): 47.1 % control; Malat1 RNA (% Control) ([3]; 2000 nM, HEK cells overexpressing EGFR): 35.3 % control; Malat1 RNA (% Control) ([3]; 2000 nM, Wild type HEK cells): 28.5 % control; Malat1 RNA (% Control) ([3]; 5000 nM (so in the source), HEK cells overexpressing EGFR): 44.1 % control; Malat1 RNA (% Control) ([3]; 5000 nM (so in the source), Wild type HEK cells): 54.8 % control; antisense activity in cells with higher expression levels of EGFR ([3]; 16 hours): increased
